Entries after “also recorded” stand apart in the source; their conditions may differ.
Tests used:
Kv1.3 = Kv1.3 (Homo sapiens, UniProt P22001); conditions: cited from earlier work; for inhibition of Kv1.3 activity: therapeutic levels
[1] = therapeutic dosages; cited from earlier work
ob/ob mice [2] = experiment: Insulin sensitivity (blood glucose after IP human insulin) in non-fasting ob/ob mice given toxin; format: in vivo, mouse; conditions: for insulin sensitivity: non-fasting ob/ob mice, toxin IP 30 minutes before insulin
Description: Non-fasting ob/ob (obese) mice (n=5), were given margatoxin 30 minutes prior to study as described elsewhere herein. Age-matched control ob/ob mice were sham injected with PBS. Both groups were given human insulin and blood glucose levels were monitored as described previously.
Non-fasting ob/ob (obese) mice (n=5), were given kaliotoxin (Alomone, Israel) 30 minutes prior to study as described elsewhere herein. Age-matched control ob/ob mice were sham injected with PBS. Both groups were given human insulin and blood glucose levels were monitored as described previously.

Kv1.1 = Kv1.1 (Homo sapiens, UniProt Q09470); conditions: cited from earlier work
Chain of Kv1.1 (Q09470 whole entry): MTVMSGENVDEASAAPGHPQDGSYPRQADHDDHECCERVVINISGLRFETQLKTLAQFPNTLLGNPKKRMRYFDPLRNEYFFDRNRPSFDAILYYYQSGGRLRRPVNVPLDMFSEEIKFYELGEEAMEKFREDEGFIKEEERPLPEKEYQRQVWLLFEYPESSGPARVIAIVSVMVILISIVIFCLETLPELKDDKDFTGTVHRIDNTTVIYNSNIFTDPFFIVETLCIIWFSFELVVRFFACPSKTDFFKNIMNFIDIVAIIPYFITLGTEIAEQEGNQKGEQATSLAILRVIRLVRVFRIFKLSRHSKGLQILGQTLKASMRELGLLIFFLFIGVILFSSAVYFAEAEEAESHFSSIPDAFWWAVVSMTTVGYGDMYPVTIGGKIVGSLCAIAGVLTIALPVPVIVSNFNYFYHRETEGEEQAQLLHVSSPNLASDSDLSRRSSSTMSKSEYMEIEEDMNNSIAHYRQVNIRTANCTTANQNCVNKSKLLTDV

Kv1.2 = Kv1.2 (Homo sapiens, UniProt P16389); conditions: cited from earlier work
Chain of Kv1.2 (P16389 whole entry): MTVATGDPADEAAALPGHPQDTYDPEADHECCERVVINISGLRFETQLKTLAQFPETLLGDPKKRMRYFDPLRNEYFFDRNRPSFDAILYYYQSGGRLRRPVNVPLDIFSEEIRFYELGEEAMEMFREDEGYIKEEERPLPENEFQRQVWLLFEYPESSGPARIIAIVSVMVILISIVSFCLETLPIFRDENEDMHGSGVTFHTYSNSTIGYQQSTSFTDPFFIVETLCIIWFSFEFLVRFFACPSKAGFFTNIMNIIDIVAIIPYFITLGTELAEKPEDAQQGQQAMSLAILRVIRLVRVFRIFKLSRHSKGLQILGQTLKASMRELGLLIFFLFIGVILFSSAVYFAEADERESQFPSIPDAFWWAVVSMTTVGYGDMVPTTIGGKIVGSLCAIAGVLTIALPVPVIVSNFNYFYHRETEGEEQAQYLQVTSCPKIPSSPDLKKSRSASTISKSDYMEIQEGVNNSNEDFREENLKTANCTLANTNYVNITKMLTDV

C57BL/6 mice = experiment: Insulin sensitivity (blood glucose after IP human insulin) in wild type C57BL/6 mice given margatoxin; format: in vivo, mouse
Description: Plasma insulin levels and insulin sensitivity: Seven-week old C57BL6/6J male mice (n=5) were given 0.1 μg/gram body weight margatoxin 20 hours prior to study via IP injection. Controls (n=5) were sham injected with phosphate buffered saline (PBS). Two hours prior to study a second injection of margatoxin was administered to the treated experimental group. At t=0, both groups received human insulin as described previously. Blood glucose measurements were performed at the times indicated.

db/db mice = experiment: Insulin sensitivity (blood glucose after IP human insulin) in fasting db/db mice given margatoxin; format: in vivo, mouse
Description: Fasting db/db (diabetic) mice (n=5), were given margatoxin 30 minutes prior to study as described elsewhere herein. Age-matched control db/db mice were sham injected with PBS. Both groups were given human insulin and blood glucose levels were monitored as described previously.

ob/ob mice [3] = experiment: Long-term pharmacological inhibition of Kv1.3 in ob/ob mice: food consumption and body weight; format: in vivo, mouse
Description: Long-term pharmacological inhibition of Kv1.3: Ob/ob mice were injected intraperitoneally with margatoxin or PBS (n=5 for each group) on days 0, 5, and 16 as described herein. Food consumption was monitored for 30 days, and weights were measured at the end of 30 days.

L6 cells = experiment: D-glucose uptake in L6 cells; format: cell-based, rat
Description: D-glucose uptake in L6 cells: L6 cells were maintained in Dulbecco's Modified Eagle's Medium (DMEM) containing 10% fetal bovine serum (FBS) and 1% penicillin-streptomycin in T-75 flasks at 37° C. and 5% CO2. To promote fusion into myotubules and quiescence, L6 cells were seeded onto 10 cm^2 flasks at a density of 3000 cells/cm^2 in DMEM containing 2% FBS. Myotube formation was determined by the percentage of nuclei in multinucleated cells. Glucose uptake assays were performed when 80-90% of the myoblasts fused into myotubes. Cells were serum starved for 3 hours in DMEM containing 0.2% bovine serum albumin, washed twice in PBS with 0.1 mM CaCl2, 0.1 MgCl2, 10 mM HEPES, pH 7.4. […] 2-deoxy-(^3H)D-glucose (1 μCi/ml, 10 μM/liter) uptake was measured in triplicate over a 10 minute period. The reaction was terminated by washing with ice-cold PBS. Non-specific uptake was determined by adding 10 mM phloretin and was subtracted from total uptake. Cells were lysed in 0.1 N KOH, and glucose uptake was measured by liquid scintillation (Packard BioScience, Meriden Conn.). […] was measured by Bradford Assay.

Chain of Kv1.3 (P22001 whole entry): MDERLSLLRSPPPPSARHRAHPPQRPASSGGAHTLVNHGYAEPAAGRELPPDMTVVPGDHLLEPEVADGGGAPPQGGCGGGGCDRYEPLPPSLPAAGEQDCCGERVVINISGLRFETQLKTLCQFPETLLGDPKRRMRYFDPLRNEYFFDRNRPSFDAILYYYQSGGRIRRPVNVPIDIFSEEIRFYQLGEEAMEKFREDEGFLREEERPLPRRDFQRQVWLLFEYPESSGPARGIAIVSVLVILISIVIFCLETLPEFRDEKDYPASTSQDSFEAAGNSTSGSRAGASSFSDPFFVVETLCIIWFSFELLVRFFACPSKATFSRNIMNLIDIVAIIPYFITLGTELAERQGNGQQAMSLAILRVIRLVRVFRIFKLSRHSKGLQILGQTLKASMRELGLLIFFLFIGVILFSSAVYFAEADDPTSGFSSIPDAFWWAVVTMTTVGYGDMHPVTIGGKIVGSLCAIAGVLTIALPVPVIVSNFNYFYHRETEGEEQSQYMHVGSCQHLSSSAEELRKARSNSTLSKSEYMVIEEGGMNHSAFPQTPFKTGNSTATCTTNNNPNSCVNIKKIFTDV

Question: Which “inhibition of Kv1.3 activity” value (Kv1.3) does the source give for CNCCC(Oc1ccc(C(F)(F)F)cc1)c1ccccc1 (stereo not drawn) [fluxetine] here?
Answer: inhibit Kv1.3 activity

Question: And the insulin sensitivity [1]?
Answer: increase insulin sensitivity

Question: Which “inhibition of Kv1.3 activity” value (Kv1.3) does the source give for COc1ccc(CCN(C)CCCC(C#N)(c2ccc(OC)c(OC)c2)C(C)C)cc1OC (stereo not drawn) [verapamil] here?
Answer: inhibit Kv1.3 activity

Question: What about the insulin sensitivity [1] of the same compound?
Answer: increase insulin sensitivity

Question: What does the source list for kaliotoxin?
Answer: blood glucose, toxin and insulin vs insulin only (ob/ob mice [2]; animals treated with kaliotoxin and insulin): significantly lower blood glucose; insulin sensitivity (ob/ob mice [2]; vs PBS): significantly increased insulin sensitivity; IC50 (Kv1.3): 0.0006 µM; IC50 (Kv1.1): 0.04 µM; inhibition of Kv1.2 (Kv1.2): but not Kv1.2

Question: Which insulin sensitivity (C57BL/6 mice; C57BL/6 mice, 0.1 μg/gram margatoxin IP, vs sham (PBS) injected controls) does the source give for “margatoxin (TIINVKCTSPKQCLPPCKAQFGQSAGAKCMNGKCKCYPH)” here?
Answer: increased insulin sensitivity

Question: What about the fasting blood glucose (C57BL/6 mice; wild type C57BL/6 mice, margatoxin injection prior to study, vs PBS) of the same compound?
Answer: lower fasting blood glucose

Question: What about the “blood glucose in response to insulin” value (C57BL/6 mice; wild type C57BL/6 mice, toxin-treated vs PBS) of the same compound?
Answer: significantly lower blood glucose in response to insulin

Question: And the insulin sensitivity (ob/ob mice [2]; vs PBS)?
Answer: significantly increased insulin sensitivity; also recorded: significantly more sensitive to insulin

Question: What about the “time after insulin at which difference in glucose level was evident” value (ob/ob mice [2]; ob/ob mice, margatoxin vs PBS) of the same compound?
Answer: ≤ 30 min

Question: What about the “time for which difference in glucose level persisted” value (ob/ob mice [2]; ob/ob mice, margatoxin vs PBS) of the same compound?
Answer: at least 3 hours

Question: And the “fall in blood glucose in response to insulin administration, greater than in control mice” value (ob/ob mice [2]; ob/ob mice, single injection of margatoxin, vs PBS)?
Answer: 50%

Question: And the “fall in blood glucose of mice receiving insulin” value (db/db mice; db/db mice, margatoxin and insulin vs PBS and insulin)?
Answer: significantly greater fall in blood glucose

Question: What about the “time at which difference in glucose levels was evident” value (db/db mice; db/db mice, margatoxin vs PBS) of the same compound?
Answer: ≤ 30 min

Question: And the “time for which difference in glucose levels persisted” value (db/db mice; db/db mice, margatoxin vs PBS)?
Answer: up to 4.5 hours

Question: What about the sensitivity to insulin (db/db mice; fasting db/db mice, margatoxin IP 30 minutes before insulin, vs PBS) of the same compound?
Answer: significant increase in sensitivity to insulin

Question: And the “body weight vs controls” value (ob/ob mice [3]; ob/ob mice treated long term with margatoxin, IP days 0, 5, 16)?
Answer: weighed significantly less than controls

Question: What about the “body weight after margatoxin treatment ceased at day 16” value (ob/ob mice [3]; ob/ob mice, weights assessed to day 36) of the same compound?
Answer: began to gain weight thereafter

Question: And the “glucose uptake in L6 cells, margatoxin together with insulin” value (L6 cells; 200 nM insulin and 250 nM margatoxin, vs either alone or neither)?
Answer: significantly increased glucose uptake; also recorded: additive to that of insulin

Question: And the “glucose uptake in L6 cells” value (L6 cells; 2-deoxy-D-glucose, phloretin-sensitive uptake, 0.2-250 nM margatoxin)?
Answer: increases uptake of glucose in L6 cells in a dose dependent manner; also recorded: significant increase in phloretin-sensitive glucose uptake

Question: What about the EC50 (L6 cells; L6 cells, read-out: concentration necessary for 1/2 maximal increase in glucose uptake) of the same compound?
Answer: 0.053 µM

Question: What about the “inhibition of Kv1.3” value (Kv1.3) of the same compound?
Answer: fairly specific and potent inhibitor of Kv1.3

Question: And the “inhibition of Kv1.2” value (Kv1.2)?
Answer: also blocks Kv1.2

From patent US6861405B2, “Compositions and methods relating to glucose metabolism, weight control, and food intake” (priority 2001, dated 2005)
